Consider 13 molecules from ChEMBL document CHEMBL1201862, “PubChem BioAssay data set” (2004).

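Test compounds were applied to cells in 96-well plates for 48 hours at 5 doses. GI50 marks 50% less growth.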 Activity calls are given as the source filed them. Cut-off read from the data, not from the text of the source: active = GI50 up to about 1.1 µM and inactive = higher. Where only a bound is given, the exact number is not on record here.

Test systems include SK-OV-3; U-251; MOLT-4; HCT-15; UO-31; HOP-92; K562; OVCAR-4; HCT-116; UACC-257; NCI-H226; KM12; SN12C; SK-MEL-5; CCRF-CEM; 786-0; M14.
Holding throughout (assay): inhibition of tumour cell growth, NCI panel, 48 h

In the case of `Cc1cc(/N=N/c2ccc(/N=N/c3c(O)c(S(=O)(=O)O)cc4cc(S(=O)(=O)O)ccc34)cc2C)ccc1/N=N/c1ccc2cc(S(=O)(=O)O)cc(S(=O)(=O)O)c2c1`, the GI50 in the test with SK-OV-3 is > 47 µM (inactive); with U-251, > 100 µM (inactive); in the test on MOLT-4, > 100 µM (inactive); with HCT-15 it was more than 100 µM; with UO-31 it was > 100 µM (inactive); in the test with HOP-92 it was > 68.5 µM (inactive). Also, the GI50 in the test on K562 was > 100 µM (inactive); in the test on OVCAR-4 it was > 100 µM (inactive); in the test with HCT-116 it was > 100 µM (inactive); in the test on UACC-257, > 100 µM (inactive); in the test with NCI-H226, > 50.2 µM (inactive); with KM12 it was > 72.4 µM (inactive). Moreover, the GI50 with SN12C, in the test with SK-MEL-5 and in the test with CCRF-CEM was > 100 µM (inactive) in each case.
As for `CCC1=C(C)/C(=C/c2[nH]c(CBr)c(CC)c2C)N=C1CBr`, the GI50 in the test on SK-OV-3 was 19 µM (inactive); with U-251, 11.3 µM (inactive); in the test with MOLT-4, 5.81 µM (inactive); in the test with HCT-15, 8.71 µM; in the test with UO-31 it was 3.52 µM (inactive); with HOP-92 it was 7.46 µM (inactive). Also, the GI50 is 17 µM (inactive) with 786-0; 8.22 µM (inactive) in the test on K562; 13 µM (inactive) in the test on OVCAR-4; > 10 µM (inactive) in the test with UACC-257; 11.6 µM (inactive) in the test with KM12; 16.5 µM (inactive) in the test on M14. The GI50 in the test with SN12C is 10 µM (inactive); in the test with SK-MEL-5, 16.8 µM (inactive); in the test on CCRF-CEM, 2.51 µM (inactive).
With `CN1C(c2ccccc2)CC(=Nc2ccccc2)CC1c1ccccc1` (centres undefined), the GI50 is 2.95 µM (inactive) in the test with SK-OV-3; 6.82 µM (inactive) in the test with U-251; 7.13 µM (inactive) in the test with MOLT-4; 16.1 µM in the test on HCT-15; 20.7 µM (inactive) in the test on UO-31; 7.78 µM (inactive) in the test on HOP-92. The GI50 is 14.2 µM (inactive) in the test with 786-0; 13.2 µM (inactive) in the test with K562; 10.4 µM (inactive) with OVCAR-4; 4.91 µM (inactive) in the test with HCT-116; 10.4 µM (inactive) in the test with UACC-257; 11.7 µM (inactive) in the test with NCI-H226. Moreover, the GI50 in the test with M14 was 13.5 µM (inactive); with SK-MEL-5, 10.9 µM (inactive); in the test with CCRF-CEM it was 16.2 µM (inactive).
Take `CC1=C(C(=O)Nc2ccccc2)C(c2ccccc2Cl)C(C(=O)Nc2ccccc2)=C(C)N1`: the GI50 in the test with SK-OV-3 is 37.1 µM (inactive); in the test with U-251, 19.4 µM (inactive); in the test with MOLT-4 it was 17.4 µM (inactive); in the test on HCT-15 it was 20 µM; with UO-31 it was 35.6 µM (inactive); in the test with HOP-92, 21.6 µM (inactive). Further, the GI50 was 19.6 µM (inactive) in the test with 786-0; 38.6 µM (inactive) in the test on K562; 36.4 µM (inactive) in the test with OVCAR-4; 22.6 µM (inactive) in the test on HCT-116; 19.4 µM (inactive) in the test on UACC-257; 22.2 µM (inactive) in the test on NCI-H226. The GI50 was 16.6 µM (inactive) in the test with M14, 18.9 µM (inactive) with SN12C, 15.2 µM (inactive) in the test on SK-MEL-5 and 32 µM (inactive) in the test with CCRF-CEM.
In the case of `CCOc1ccc(OCC)c([P+](c2ccccc2)(c2ccccc2)c2ccccc2)c1`, the GI50 with U-251 is 0.204 µM (active); in the test with HOP-92, 0.182 µM (active); with 786-0, 0.879 µM (active); in the test on K562 it was 0.213 µM (active); in the test with OVCAR-4, 1.19 µM (inactive); in the test on HCT-116, 0.27 µM (active). The GI50 in the test on UACC-257 is 0.215 µM (active); with NCI-H226 it was 0.406 µM (active); in the test on KM12 it was 0.178 µM (active); in the test on M14 it was 0.71 µM (active); in the test on SN12C it was 0.294 µM (active); with SK-MEL-5 it was 0.267 µM (active). In addition, in the test on CCRF-CEM, the GI50 was 0.322 µM (active).
Consider `O=C1C(=O)N(c2ccc(Cl)c(Cl)c2)C(=O)C(=O)C1c1nc2ccccc2s1`, for which the GI50 in the test on SK-OV-3 was > 100 µM (inactive); in the test on U-251 it was > 100 µM (inactive); with MOLT-4, > 100 µM (inactive); in the test on HCT-15, 87.1 µM; in the test on UO-31, > 100 µM (inactive); in the test with HOP-92 it was 9.55 µM (inactive). Further, the GI50 in the test with 786-0 is > 100 µM (inactive); in the test with OVCAR-4, > 100 µM (inactive); with HCT-116, > 100 µM (inactive); in the test on UACC-257, > 100 µM (inactive); in the test on NCI-H226 it was 88.7 µM (inactive); in the test on M14, > 100 µM (inactive). In addition, the GI50 in the test with SN12C was > 100 µM (inactive); with SK-MEL-5, > 100 µM (inactive); in the test on CCRF-CEM it was 38.2 µM (inactive).
As for `CCS(=O)(=O)Nc1ccc(Nc2c3ccccc3nc3ccccc23)c(OC)c1`, the GI50 in the test with SK-OV-3 is 0.203 µM (active); with U-251, 0.158 µM (active); in the test on MOLT-4, < 0.01 µM (active); in the test on HCT-15, 0.682 µM; in the test with UO-31 it was 0.397 µM (active); in the test with HOP-92 it was 0.697 µM (active). Moreover, the GI50 was 0.681 µM (active) with K562; 4.19 µM (inactive) in the test with OVCAR-4; 1.19 µM (inactive) with HCT-116; 2.6 µM (inactive) with UACC-257; 0.331 µM (active) with NCI-H226; 1.75 µM (inactive) in the test on KM12. Besides, the GI50 was 0.166 µM (active) in the test on SN12C, 0.796 µM (active) with SK-MEL-5 and 0.0485 µM (active) in the test on CCRF-CEM.
With `COc1cccc(/C=C2\CCC(C)(CN(C)C)C2=O)c1` (centres undefined), the GI50 with U-251 is > 100 µM (inactive); with MOLT-4, 48.6 µM (inactive); in the test with HCT-15 it was 35.6 µM; in the test on UO-31 it was 81.5 µM (inactive); in the test with HOP-92, > 100 µM (inactive); in the test with 786-0, > 100 µM (inactive). Besides, the GI50 was 43.7 µM (inactive) with K562; 98.4 µM (inactive) in the test with OVCAR-4; 58.2 µM (inactive) in the test on HCT-116; > 100 µM (inactive) in the test on UACC-257; > 100 µM (inactive) in the test on NCI-H226; 92.7 µM (inactive) with KM12. For the same molecule, the GI50 in the test with M14 was > 100 µM (inactive); in the test on SN12C, > 100 µM (inactive); in the test on SK-MEL-5 it was 69 µM (inactive).
As to `CCOC(=O)C(Sc1ccccc1)c1c(OC)cc(=O)oc1/C=[N+](/[O-])c1ccc(N(C)C)cc1` (centres undefined), the GI50 is 75.7 µM (inactive) in the test on SK-OV-3; 24.7 µM (inactive) in the test with U-251; 13.8 µM (inactive) with MOLT-4; 15.4 µM with HCT-15; 18.5 µM (inactive) with UO-31; 19.7 µM (inactive) in the test on 786-0. Besides, the GI50 in the test with K562 is 6.81 µM (inactive); in the test with OVCAR-4, 26.7 µM (inactive); in the test with UACC-257 it was 14.6 µM (inactive); with KM12, 21.7 µM (inactive); in the test on M14, 16.2 µM (inactive); in the test on SN12C it was 16.2 µM (inactive). The GI50 with SK-MEL-5 was 20 µM (inactive); with CCRF-CEM it was 4.52 µM (inactive).
For `C/C(=N\Nc1nnc(S)n1N)c1c(O)cc(C)oc1=O`, the GI50 in the test with SK-OV-3 was > 100 µM (inactive); in the test with U-251, > 100 µM (inactive); in the test with MOLT-4 it was > 100 µM (inactive); in the test with HCT-15, more than 100 µM; with UO-31, > 100 µM (inactive); with HOP-92, > 100 µM (inactive). The GI50 was > 100 µM (inactive) in the test on 786-0; > 100 µM (inactive) with K562; 99.3 µM (inactive) in the test with OVCAR-4; > 100 µM (inactive) in the test with HCT-116; > 100 µM (inactive) in the test with UACC-257; > 100 µM (inactive) in the test on NCI-H226. Further, the GI50 with KM12, with M14, in the test on SN12C and in the test with CCRF-CEM was > 100 µM (inactive) in each case.
With `C[Si](C)(C)[C@@]1([Se]c2ccccc2)CC[C@@H]1C(=O)c1ccccc1`, the GI50 is > 100 µM (inactive) with SK-OV-3; 83.8 µM (inactive) in the test with U-251; 21.3 µM (inactive) in the test on MOLT-4; 45.8 µM in the test with HCT-15; 32.3 µM (inactive) in the test with UO-31; > 100 µM (inactive) in the test on 786-0. Besides, the GI50 is 34.5 µM (inactive) in the test with K562; 67.9 µM (inactive) in the test with OVCAR-4; 33.6 µM (inactive) in the test with HCT-116; 40.6 µM (inactive) in the test with UACC-257; 40.2 µM (inactive) in the test on NCI-H226; 44.9 µM (inactive) in the test with KM12. For the same molecule, the GI50 in the test with M14 is 80.4 µM (inactive); in the test on SN12C, 61.4 µM (inactive); in the test with SK-MEL-5, 18.5 µM (inactive); in the test on CCRF-CEM, 27.7 µM (inactive).
Regarding `CC12O[Te]34OC1(C)C(C)(O3)C2(C)O4`, the GI50 with SK-OV-3 is 22 µM (inactive); in the test with U-251, 3.77 µM (inactive); in the test on MOLT-4, 6.47 µM (inactive); in the test with HCT-15, 17.4 µM; in the test with UO-31, 11.8 µM (inactive); in the test with 786-0, 15.3 µM (inactive). In addition, the GI50 with OVCAR-4 was 14.6 µM (inactive); in the test on HCT-116, 11.9 µM (inactive); in the test with UACC-257 it was 17.4 µM (inactive); in the test on NCI-H226, 16.9 µM (inactive); with KM12, 14.8 µM (inactive); in the test on M14 it was 16.5 µM (inactive). Moreover, the GI50 in the test with SN12C is 10.9 µM (inactive).
With `C/C=C/CC(S(=O)(=O)c1ccccc1)S(=O)(=O)c1ccccc1`, the GI50 was > 100 µM (inactive) in the test with SK-OV-3; 33.3 µM (inactive) in the test on U-251; > 100 µM (inactive) in the test with MOLT-4; 60 µM in the test with HCT-15; > 100 µM (inactive) with UO-31; > 100 µM (inactive) in the test on HOP-92. Also, the GI50 in the test on K562, in the test with OVCAR-4, with HCT-116, in the test on UACC-257, with NCI-H226 and in the test on KM12 was > 100 µM (inactive) each time. For the same molecule, the GI50 in the test with M14 was > 100 µM (inactive); in the test with SN12C it was > 100 µM (inactive); in the test with SK-MEL-5, > 100 µM (inactive); with CCRF-CEM, 87.1 µM (inactive).
